According to patent US10626125B2, “1,1,1-trifluoro-3-hydroxypropan-2-yl carbamate derivatives as MAGL inhibitors” (PFIZER INC., priority 2017, dated 2020):
Where two headings read alike, the source gives them in different places.

How the values were obtained:
[1] = target: T1, human recombinant Monoacylglycerol Lipase (Homo sapiens, UniProt Q99685); assay: MAGL enzymatic assay (IC50; 7-HCA substrate added at T=0 min or T=30 min); assay type: biochemical
T1 sequence (Q99685 1-303): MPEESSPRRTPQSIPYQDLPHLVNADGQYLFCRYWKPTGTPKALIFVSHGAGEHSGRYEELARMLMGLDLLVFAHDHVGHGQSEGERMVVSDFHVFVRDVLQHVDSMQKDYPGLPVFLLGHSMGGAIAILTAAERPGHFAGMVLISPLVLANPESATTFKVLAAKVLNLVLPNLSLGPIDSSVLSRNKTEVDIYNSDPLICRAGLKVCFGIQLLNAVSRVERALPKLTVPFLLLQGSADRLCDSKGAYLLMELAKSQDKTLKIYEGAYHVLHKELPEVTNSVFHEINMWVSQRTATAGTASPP

[2] = target: T1, human recombinant Monoacylglycerol Lipase; assay: MAGL inactivation (kinact/KI from enzyme progress curves, T=0 min protocol); conditions: from plot of Kobs vs. compound concentration, geometric mean of 2-5 determinations (b: ≥6)
[3] = MAGL (T=30 min) IC50, 30 minute incubation of compound with MAGL enzyme before addition of 7-HCA substrate
[4] = read-out: MAGL (T=30 min) IC50, 30 minute incubation of compound with MAGL enzyme before addition of 7-HCA substrate
[5] = MAGL (T = 30 min) IC50, substrate 7-HCA added after 30 minute incubation (T=30 min), geometric mean of 2-5 determinations unless otherwise indicated
[6] = substrate 7-HCA added immediately (T=0 min), geometric mean of 2-5 determinations unless otherwise indicated, read-out: MAGL (T = 0 min) IC50

Compound	IC50 [1, 4] [nM]	IC50 [1, 5] [nM]	IC50 [1, 6] [nM]	other results
N#Cc1ccc(C2COC3(CCN(C(=O)O[C@H](CO)C(F)(F)F)CC3)C2)c(F)c1 (single isomer, unassigned) [diastereomer of Example 72]	–	–	–	IC50 [1, 3]: 12 nM
O=C(O[C@H](CO)C(F)(F)F)N1CCC2(CC1)CC(Oc1ccc(C(F)F)cn1)C2 [Example 85, (2R)-1,1,1-trifluoro-3-hydroxypropan-2-yl 2-{[5-(difluoromethyl)pyridin-2-yl]oxy}-7-azaspiro[3.5]nonane-7-carboxylate]	–	0.6	4	MAGL kinact/KI [2]: 42100 1/s per M
O=C(O[C@H](CO)C(F)(F)F)N1CCC2(CC1)CC(n1cc(C(F)(F)F)cn1)CO2 (single isomer, unassigned) [Example 8]	–	16	172	MAGL kinact/KI [2]: 2880 1/s per M
N#Cc1ccc(C2CC3(CCN(C(=O)O[C@H](CO)C(F)(F)F)CC3)C2)nc1 [Example 84, (2R)-1,1,1-trifluoro-3-hydroxypropan-2-yl 2-(5-cyanopyridin-2-yl)-7-azaspiro[3.5]nonane-7-carboxylate]	–	15	143	MAGL kinact/KI [2]: 4000 1/s per M
CN(C(=O)CC1CC1)C1CC2(CCN(C(=O)O[C@H](CO)C(F)(F)F)CC2)C1 [Example 43, (2R)-1,1,1-trifluoro-3-hydroxypropan-2-yl 2-[(cyclopropylacetyl)(methyl)amino]-7-azaspiro[3.5]nonane-7-carboxylate]	–	2	29	MAGL kinact/KI [2]: 18500 1/s per M
CN(C1CC2(CCN(C(=O)O[C@H](CO)C(F)(F)F)CC2)C1)S(=O)(=O)C(C)(C)C [Example 61, (2R)-1,1,1-trifluoro-3-hydroxypropan-2-yl 2-[(tert-butylsulfonyl)(methyl)amino]-7-azaspiro[3.5]nonane-7-carboxylate]	–	1	9	MAGL kinact/KI [2]: 66900 1/s per M
Cc1cn(C2COC3(CCN(C(=O)OC(CO)C(F)(F)F)CC3)C2)nc1C (single isomer, unassigned) [diastereomer of Example 54]	20	–	–	–
O=C(O[C@H](CO)C(F)(F)F)N1CCC2(CC1)CC(Oc1ccc(C(F)F)nc1)C2 [Example 19, (2R)-1,1,1-Trifluoro-3-hydroxypropan-2-yl 2-{[6-(difluoromethyl)pyridin-3-yl]oxy}-7-azaspiro[3.5]nonane-7-carboxylate]	–	1	8	–
O=C(O[C@H](CO)C(F)(F)F)N1CCC2(CC1)C[C@@H](n1cc(F)cn1)CO2 [Example 11, (2R)-1,1,1-Trifluoro-3-hydroxypropan-2-yl (3R)-3-(4-fluoro-1H-pyrazol-1-yl)-1-oxa-8-azaspiro[4.5]decane-8-carboxylate]	–	15	211	–
Cc1cnn(C2COC3(CCN(C(=O)O[C@H](CO)C(F)(F)F)CC3)C2)c1 (single isomer, unassigned) [diastereomer of Example 24]	60	–	–	–
CC(C)(C)c1ccn(C2COC3(CCN(C(=O)OC(CO)C(F)(F)F)CC3)C2)n1 (single isomer, unassigned) [diastereomer of Example 52]	4	–	–	–
CN(C1CCOC2(CCN(C(=O)O[C@H](CO)C(F)(F)F)CC2)C1)S(=O)(=O)CC1CC1 (single isomer, unassigned) [Example 50]	–	67	752	–
N#Cc1cccc(C2COC3(CCN(C(=O)O[C@H](CO)C(F)(F)F)CC3)C2)c1F (single isomer, unassigned) [diastereomer of Example 71]	–	–	–	IC50 [1, 3]: 8 nM
N#Cc1ccc([C@@H]2COC3(CCN(C(=O)O[C@H](CO)C(F)(F)F)CC3)C2)cc1F [diastereomer of Example 27, (2R)-1,1,1-trifluoro-3-hydroxypropan-2-yl (3R)-3-(4-cyano-3-fluorophenyl)-1-oxa-8-azaspiro[4.5]decane-8-carboxylate]	–	–	–	IC50 [1, 3]: 17 nM
O=C(O[C@H](CO)C(F)(F)F)N1CCC2(CC1)C[C@H](n1cc(F)cn1)CO2 [Example 10, (2R)-1,1,1-Trifluoro-3-hydroxypropan-2-yl (3S)-3-(4-fluoro-1H-pyrazol-1-yl)-1-oxa-8-azaspiro[4.5]decane-8-carboxylate]	–	49	563	–
O=C(OC(CO)C(F)(F)F)N1CCC2(CCC(n3cc(C(F)F)cn3)CO2)CC1 (single isomer, unassigned) [diastereomer of Example 75]	3	–	–	–
O=C(O[C@H](CO)C(F)(F)F)N1CCC2(CC1)CC(c1c(F)cccc1F)CO2 (single isomer, unassigned) [diastereomer of Example 32]	–	–	–	IC50 [1, 3]: 1 nM
CC(C)(C)c1cnn(C2COC3(CCN(C(=O)OC(CO)C(F)(F)F)CC3)C2)c1 (single isomer, unassigned) [diastereomer of Example 21]	7	–	–	–
O=C(O[C@H](CO)C(F)(F)F)N1CCC2(CC1)CC(n1cc(C(F)F)cn1)CO2 (single isomer, unassigned) [diastereomer of Example 20]	–	–	–	IC50 [1, 3]: 65 nM
O=C(OC(CO)C(F)(F)F)N1CCC2(CCC(n3cc(C(F)(F)F)cn3)CO2)CC1 (single isomer, unassigned) [diastereomer of Example 69]	3	–	–	–
O=C(O[C@H](CO)C(F)(F)F)N1CCC2(CC1)CC(n1ncc3ccccc31)CO2 (single isomer, unassigned) [diastereomer of Example 62]	49	–	–	–
O=C(OC(CO)C(F)(F)F)N1CCC2(CCC(n3cc(F)cn3)CO2)CC1 (single isomer, unassigned) [diastereomer of Example 70]	14	–	–	–
O=C(OC(CO)C(F)(F)F)N1CCC2(CC1)CC(n1ccc(C(F)(F)F)n1)CO2 (single isomer, unassigned) [diastereomer of Example 53]	9	–	–	–
CN(C1CCOC2(CCN(C(=O)OC(CO)C(F)(F)F)CC2)C1)S(=O)(=O)CC1CC1 (single isomer, unassigned) [diastereomer of Example 50]	284	–	–	–

Second part, led by results:

IC50 [1, 4] [nM]	IC50 [1, 5] [nM]	IC50 [1, 6] [nM]	Compound	other results
14	–	–	N#Cc1cc(C2COC3(CCN(C(=O)OC(CO)C(F)(F)F)CC3)C2)ccc1F (single isomer, unassigned) [diastereomer of Example 28]	–
–	4	54	N#Cc1ccc(F)c(C2COC3(CCN(C(=O)O[C@H](CO)C(F)(F)F)CC3)C2)c1 (single isomer, unassigned) [Example 30]	MAGL kinact/KI [2]: 14400 1/s per M
–	1	8	O=C(O[C@H](CO)C(F)(F)F)N1CCC2(CC1)CC(c1ccccc1F)CO2 (single isomer, unassigned) [Example 26]	MAGL kinact/KI [2]: 87700 1/s per M
–	3	26	N#Cc1cccc(C2CCOC3(CCN(C(=O)O[C@H](CO)C(F)(F)F)CC3)C2)c1 (single isomer, unassigned) [Example 73]	MAGL kinact/KI [2]: 8870 1/s per M
–	5	43	O=C(O[C@H](CO)C(F)(F)F)N1CCC2(CC1)CC(c1ccc(C(F)F)cn1)CO2 (single isomer, unassigned) [Example 39]	MAGL kinact/KI [2]: 5180 1/s per M
20	–	–	O=C(OC(CO)C(F)(F)F)N1CCC2(CC1)CC(c1ccccn1)CO2 (single isomer, unassigned) [diastereomer of Example 41]	–
1	–	–	O=C(OC(CO)C(F)(F)F)N1CCC2(CC1)CC(c1ccc(F)cc1)CO2 (single isomer, unassigned) [diastereomer of Example 34]	–
23	–	–	O=C(OC(CO)C(F)(F)F)N1CCC2(CC1)CC(n1cc(Cl)cn1)CO2 (single isomer, unassigned) [diastereomer of Example 22]	–
31	–	–	O=C(O[C@H](CO)C(F)(F)F)N1CCC2(CC1)CC(c1ccc(C(F)F)cn1)CO2 (single isomer, unassigned) [diastereomer of Example 39]	–
9	–	–	O=C(OC(CO)C(F)(F)F)N1CCC2(CC1)CC(c1ccc(C(F)(F)F)cn1)CO2 (single isomer, unassigned) [diastereomer of Example 40]	–
23	–	–	N#Cc1ccc(C2COC3(CCN(C(=O)O[C@H](CO)C(F)(F)F)CC3)C2)cc1 (single isomer, unassigned) [diastereomer of Example 31]	–
19	–	–	O=C(OC(CO)C(F)(F)F)N1CCC2(CC1)CC(c1cc(C(F)F)ccn1)CO2 (single isomer, unassigned) [diastereomer of Example 35]	–
15	–	–	O=C(OC(CO)C(F)(F)F)N1CCC2(CCC(c3ccc(F)cn3)CO2)CC1 (single isomer, unassigned) [diastereomer of Example 74]	–
336	–	–	N#Cc1ccc(C2COC3(CCN(C(=O)OC(CO)C(F)(F)F)CC3)C2)nc1 (single isomer, unassigned) [diastereomer of Example 38]	–
2	–	–	O=C(OC(CO)C(F)(F)F)N1CCC2(CC1)CC(c1ccc(F)cc1F)CO2 (single isomer, unassigned) [diastereomer of Example 33]	–
74	–	–	N#Cc1cccc(C2CCOC3(CCN(C(=O)OC(CO)C(F)(F)F)CC3)C2)c1 (single isomer, unassigned) [diastereomer of Example 73]	–
